Patent US20110245292A1, “2-HYDROXY-ETHANESULFONATE SALT” (AstraZeneca AB, priority 2008, published 2011)
Structures can show the parent of a compound that is named as a salt.

Assay: Gravimetric Vapour Sorption (GVS)
Format: physicochemical
Procedure: Gravimetric Vapour Sorption (GVS) profiles were measured using a Surface Measurements Systems Dynamic Vapour Sorption DVS-1 or a DVS Advantage instrument. The solid sample ca. 1-5 mg was placed into a glass vessel and the weight of the sample was recorded during a dual cycle step method (40 to 90 to 0 to 90 to 0% relative humidity (RH), in steps of 10% RH).

| Structure (SMILES) | GVS mass increase, 1st cycle (1st cycle, sample of preparation 1 (step a)) | GVS mass increase, 2nd cycle (2nd cycle, sample of preparation 1 (step a)) [%] | GVS weight increase at 80% RH (80% RH (±0.3%), material of preparation 2) [%] | GVS mass increase at 80% RH (80% RH, material of preparation 1) |
| --- | --- | --- | --- | --- |
| O[C@](c1ccccc1)(c1cc(C[N+]23CCC(CC2)[C@@H](Oc2cccc(F)c2)C3)on1)C1CCCCC1.[Cl-] [(R)-1-[3-((R)-Cyclohexyl-hydroxy-phenyl-methyl)-isoxazol-5-ylmethyl]-3-(3-fluoro-phenoxy)-1-azonia-bicyclo[2.2.2]octane chloride] | approximately 5% | ~6.5 |  |  |
| O[C@](c1ccccc1)(c1cc(C[N+]23CCC(CC2)[C@@H](Oc2cccc(F)c2)C3)on1)C1CCCCC1 [Salt Form A, (R)-1-[3-((R)-cyclohexyl-hydroxy-phenyl-methyl)-isoxazol-5-ylmethyl]-3-(3-fluoro-phenoxy)-1-azonia-bicyclo[2.2.2]octane 2-hydroxy-ethanesulfonate] |  |  | 0.15 | no mass increase |
